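Each compound was tested at five concentrations against cells in 96-well plates for 48 hours. GI50: concentration for 50% inhibition of growth. At the TGI there is no net growth.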
Experiments:
Experiment in all cases: DTP human tumour cell line panel, 48 h
CCRF-CEM leukemia = test system: CCRF-CEM leukemia
HL-60(TB) leukemia = test system: HL-60(TB) leukemia
OVCAR-4 ovarian = test system: OVCAR-4 ovarian
HCT-15 colon = test system: HCT-15 colon
786-0 renal = test system: 786-0 renal
ACHN renal = test system: ACHN renal
NCI-H23 lung = test system: NCI-H23 lung
MALME-3M melanoma = test system: MALME-3M melanoma
SF-539 CNS = test system: SF-539 CNS
MDA-MB-231 breast = test system: MDA-MB-231 breast

Compound | TGI (CCRF-CEM leukemia) [µM] | TGI (HL-60(TB) leukemia) [µM] | TGI (OVCAR-4 ovarian) [µM] | TGI (HCT-15 colon) [µM] | TGI (786-0 renal) [µM] | TGI (ACHN renal) [µM] | TGI (NCI-H23 lung) [µM] | TGI (MALME-3M melanoma) [µM] | TGI (SF-539 CNS) [µM] | GI50 (CCRF-CEM leukemia) [µM] | GI50 (HL-60(TB) leukemia) [µM] | GI50 (MDA-MB-231 breast) [µM] | TGI (MDA-MB-231 breast) [µM] | GI50 (HCT-15 colon) [µM] | GI50 (NCI-H23 lung) [µM] | GI50 (SF-539 CNS) [µM] | GI50 (OVCAR-4 ovarian) [µM] | GI50 (ACHN renal) [µM] | GI50 (MALME-3M melanoma) [µM]
CN(C)C(=O)Oc1ccc(C(=S)Nc2ccccc2)cc1 | 79.6 | 84.9 | > 100 | > 100 | > 100 | > 100 | > 100 | > 100 | > 100 |  |  |  |  |  |  |  |  |  | 
COc1ccc2c(c1)CC[C@@H]1C2CC[C@]2(C)C(=C=CP(=O)(O)O)CCC12 (stereo not given in full) |  |  | > 100 | > 100 | > 100 | > 100 | > 100 | > 100 | > 100 |  |  |  |  |  |  |  |  |  | 
CCN(CC)CCNc1ccc([N+](=O)[O-])c2sc3cc(Cl)ccc3c(=O)c12 | > 100 | > 100 |  | > 100 |  |  | > 100 |  | 5.25 | 3.17 | 11.5 | 1.74 | 5.01 | 2.7 | 13.9 | 2.05 |  |  | 
COc1cc2c(cc1OCCCOc1ccc(-c3cc4ccccc4c4ccccc34)cc1)N=C[C@@H]1CCCN1C2=O |  | 0.393 | 2.21 | 2.26 |  | 2.3 | 2.74 | 2.74 | 2.92 | 0.237 | 0.171 | 0.291 | 1.27 | 0.896 | 1.41 | 1.58 | 0.815 | 1.07 | 1.4
S=c1[nH]nc(CCCCCCCCc2n[nH]c(=S)o2)o1 | > 100 | > 100 | > 100 | > 100 | > 100 | > 100 | > 100 |  | > 100 |  |  |  | > 100 |  |  |  |  |  | 
CSc1nc(C)c2c(n1)N(c1ccc(Cl)cc1)CC2 | > 100 |  | > 100 | > 100 | > 100 | > 100 | > 100 | > 100 | > 100 |  |  |  | > 100 |  |  |  |  |  | 
CCCCCCCCCCCCC1N=C(N)N2CCCC2=C1C(=O)OC (stereo not given) | 3.89 |  | 5.86 | 3.11 | 3.04 | 19.5 | 6.17 | 3.64 | 13.2 |  |  |  | 4.38 |  |  |  |  |  | 
Cc1ncc(CSC(=N)N)n1Cc1ccccc1 |  |  | > 100 | > 100 | > 100 | > 100 | > 100 | > 100 | > 100 |  |  |  | > 100 |  |  |  |  |  | 
C/C(=N\NC(=S)N1CCOCC1)c1nc2ncccc2[nH]1 | > 100 | > 100 | > 100 | > 100 |  | > 100 | > 100 | > 100 | 51.4 |  |  |  | > 100 |  |  |  |  |  | 
COC(=O)C(NC(=O)c1ccccc1)C(c1c(O)cc(O)cc1O)P(=O)(OC)OC (stereo not given) | > 100 | > 100 | > 100 | > 100 |  | > 100 | > 100 |  | > 100 |  |  |  |  |  |  |  |  |  | 
O=C(O)C1(C(O)c2ccccc2)SCCCS1 (stereo not given) | > 10 | > 10 |  | > 10 | > 10 | > 10 | > 10 | > 10 | > 10 |  |  |  | > 10 |  |  |  |  |  | 
O=c1c2cc(I)ccc2nc(-c2cccs2)n1O | 95.2 | > 100 | 96.9 | > 100 | > 100 | > 100 | > 100 |  | > 100 |  |  |  |  |  |  |  |  |  | 
CC(=O)C(C(C)=O)[C@H]1OC(C)(C)O[C@H]1[C@H]1COC(C)(C)O1 | > 100 |  | > 100 | > 100 | > 100 | > 100 | > 100 | > 100 | 41.5 |  |  |  | 89 |  |  |  |  |  | 
Cn1c(NC(=O)NC23CC4CC(CC(C4)C2)C3)nc2ccccc21 |  | > 100 | 28.5 | > 100 | 81.5 | > 100 | > 100 | 81.6 | > 100 |  |  |  |  |  |  |  |  |  | 
S=c1[nH]n2c(COc3cc(Cl)c(OCc4nnc5sc(=S)[nH]n45)cc3Cl)nnc2s1 |  | > 100 | > 100 | > 100 | > 100 | > 100 | > 100 | > 100 | > 100 |  |  |  | > 100 |  |  |  |  |  | 
CSc1nc[nH]c1C(N)=S |  | > 100 |  |  | > 100 | > 100 | > 100 | > 100 | > 100 |  |  |  | > 100 |  |  |  |  |  | 
O=C(c1ccccc1)c1cc(Cl)ccc1NCn1nnc2ccccc21 | > 100 | 88.8 | > 100 | > 100 | > 100 | > 100 | > 100 |  | > 100 |  |  |  |  |  |  |  |  |  | 
CC(C)(CN1CCCCC1)C(=O)CC(SCCS(=O)(=O)O)c1ccc(Cl)cc1 (stereo not given) | 6.04 | 8.13 |  | 6.66 | 8.91 | 17.1 | 16.6 | 24.3 | 4.66 |  |  |  | 6.61 |  |  |  |  |  | 
O=C1/C(=C/c2ccc(Cl)cc2)Oc2ccccc21 | > 100 | > 100 | > 100 | > 100 | 29.7 | 43.4 | 73.1 |  | 48.8 |  |  |  | > 100 |  |  |  |  |  | 
COc1ccc(C23OCC(Cc4cc(OC)c(OC)cc42)C3CO)cc1OC (stereo not given) |  | > 100 | > 100 | > 100 | > 100 | > 100 | > 100 | > 100 | > 100 |  |  |  | > 100 |  |  |  |  |  | 
c1cncc([O][Ge]([O]c2cccnc2)([O]c2cccnc2)[O]c2cccnc2)c1 |  |  | > 100 | > 100 |  |  | > 100 | > 100 | > 100 |  |  |  |  | > 100 | > 100 | > 100 | > 100 |  | > 100
CC(=O)[C@]1(O)Cc2c(O)c3c(c(O)c2[C@@H](OC2CC(N)C(O)C(C)O2)C1)C(=O)c1c(OCc2ccccc2)cccc1C3=O (stereo not given in full) | 1.45 |  | 9.36 | 2.75 | 2.16 | 4.91 | 6.9 | 20.1 | 7.45 |  |  |  | 3.45 |  |  |  |  |  | 
